# Results reported in ChEMBL document CHEMBL1201862, “PubChem BioAssay data set” (2004).
#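 Protocol summary: plate cells (96-well), add compound at 5 concentrations, incubate 48 h, interpolate endpoints linearly. Here, GI50 denotes the concentration required for 50% inhibition of growth.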 Active and inactive are the calls of the source. No stated cut-off is given here; in the data, active = GI50 up to about 1.1 µM and inactive = higher.
# Assays:
# Assay in all cases: inhibition of tumour cell growth, NCI panel, 48 h
# 786-0 = test system: 786-0
# A498 = test system: A498
# A549 = test system: A549
# ACHN = test system: ACHN
# BT-549 = test system: BT-549
# CAKI-1 = test system: CAKI-1
# CCRF-CEM = test system: CCRF-CEM
# COLO 205 = test system: COLO 205
# DU-145 = test system: DU-145
# EKVX = test system: EKVX
# HCC 2998 = test system: HCC 2998
# HCT-116 = test system: HCT-116
# HCT-15 = test system: HCT-15
# HL-60 = test system: HL-60
# HOP-62 = test system: HOP-62
# HOP-92 = test system: HOP-92
# HT-29 = test system: HT-29
# IGROV-1 = test system: IGROV-1
# K562 = test system: K562
# KM12 = test system: KM12
# LOX IMVI = test system: LOX IMVI
# M14 = test system: M14
# MCF7 = test system: MCF7
# MDA-MB-231 = test system: MDA-MB-231
# MDA-MB-435 = test system: MDA-MB-435
# MDA-N = test system: MDA-N
# MOLT-4 = test system: MOLT-4
# Malme-3M = test system: Malme-3M
# NCI-H226 = test system: NCI-H226
# NCI-H23 = test system: NCI-H23
# NCI-H460 = test system: NCI-H460
# NCI-H522 = test system: NCI-H522
# NCI/ADR-RES = test system: NCI/ADR-RES
# OVCAR-3 = test system: OVCAR-3
# OVCAR-4 = test system: OVCAR-4
# OVCAR-5 = test system: OVCAR-5
# OVCAR-8 = test system: OVCAR-8
# PC-3 = test system: PC-3
# RPMI-8226 = test system: RPMI-8226
# RXF 393 = test system: RXF 393
# SF-268 = test system: SF-268
# SF-295 = test system: SF-295
# SK-MEL-28 = test system: SK-MEL-28
# SK-MEL-2 = test system: SK-MEL-2
# SK-MEL-5 = test system: SK-MEL-5
# SK-OV-3 = test system: SK-OV-3
# SNB-19 = test system: SNB-19
# SNB-75 = test system: SNB-75
# SW-620 = test system: SW-620
# TK-10 = test system: TK-10
# U-251 = test system: U-251
# UACC-257 = test system: UACC-257
# UACC-62 = test system: UACC-62
# UO-31 = test system: UO-31
# Hs-578T = test system: Hs-578T
# SF-539 = test system: SF-539
# SN12C = test system: SN12C
# SR = test system: SR
# T47D = test system: T47D
smiles,measurement,setting,value
N#CC1C(=O)NC23CCCCC2C1c1ccccc1O3 (configuration not stated),GI50,786-0,> 100 µM (inactive)
same,GI50,A498,> 100 µM (inactive)
same,GI50,A549,> 100 µM (inactive)
same,GI50,ACHN,> 100 µM (inactive)
same,GI50,BT-549,> 100 µM (inactive)
same,GI50,CAKI-1,> 100 µM (inactive)
same,GI50,CCRF-CEM,74.8 µM (inactive)
same,GI50,COLO 205,> 100 µM (inactive)
same,GI50,DU-145,> 100 µM (inactive)
same,GI50,EKVX,> 100 µM (inactive)
same,GI50,HCC 2998,> 100 µM (inactive)
same,GI50,HCT-116,> 100 µM (inactive)
same,GI50,HCT-15,> 100 µM
same,GI50,HL-60,> 100 µM (inactive)
same,GI50,HOP-62,> 100 µM (inactive)
same,GI50,HOP-92,0.241 µM (active)
same,GI50,HT-29,> 100 µM (inactive)
same,GI50,IGROV-1,> 100 µM (inactive)
same,GI50,K562,> 100 µM (inactive)
same,GI50,KM12,> 100 µM (inactive)
same,GI50,LOX IMVI,> 100 µM (inactive)
same,GI50,M14,> 100 µM (inactive)
same,GI50,MCF7,> 100 µM (inactive)
same,GI50,MDA-MB-231,> 100 µM (inactive)
same,GI50,MDA-MB-435,> 100 µM (inactive)
same,GI50,MDA-N,> 100 µM (inactive)
same,GI50,MOLT-4,> 100 µM (inactive)
same,GI50,Malme-3M,> 100 µM (inactive)
same,GI50,NCI-H226,> 100 µM (inactive)
same,GI50,NCI-H23,> 100 µM (inactive)
same,GI50,NCI-H460,> 100 µM (inactive)
same,GI50,NCI-H522,> 100 µM (inactive)
same,GI50,NCI/ADR-RES,> 100 µM (inactive)
same,GI50,OVCAR-3,> 100 µM (inactive)
same,GI50,OVCAR-4,> 100 µM (inactive)
same,GI50,OVCAR-5,> 100 µM (inactive)
same,GI50,OVCAR-8,> 100 µM (inactive)
same,GI50,PC-3,> 100 µM (inactive)
same,GI50,RPMI-8226,> 100 µM (inactive)
same,GI50,RXF 393,> 100 µM (inactive)
same,GI50,SF-268,2.1 µM (inactive)
same,GI50,SF-295,> 100 µM (inactive)
same,GI50,SK-MEL-28,53.5 µM (inactive)
same,GI50,SK-MEL-2,> 100 µM (inactive)
same,GI50,SK-MEL-5,> 100 µM (inactive)
same,GI50,SK-OV-3,> 100 µM (inactive)
same,GI50,SNB-19,> 100 µM (inactive)
same,GI50,SNB-75,> 100 µM (inactive)
same,GI50,SW-620,> 100 µM (inactive)
same,GI50,TK-10,> 100 µM (inactive)
same,GI50,U-251,> 100 µM (inactive)
same,GI50,UACC-257,> 100 µM (inactive)
same,GI50,UACC-62,> 100 µM (inactive)
same,GI50,UO-31,> 100 µM (inactive)
Cc1ccc(O)c(-c2csc(NCN3CCN(CNc4nc(-c5cc(C)ccc5O)cs4)CC3)n2)c1,GI50,786-0,> 100 µM (inactive)
same,GI50,A498,> 100 µM (inactive)
same,GI50,A549,> 100 µM (inactive)
same,GI50,ACHN,> 100 µM (inactive)
same,GI50,BT-549,> 100 µM (inactive)
same,GI50,CAKI-1,> 100 µM (inactive)
same,GI50,CCRF-CEM,20.5 µM (inactive)
same,GI50,COLO 205,> 100 µM (inactive)
same,GI50,DU-145,> 100 µM (inactive)
same,GI50,EKVX,> 100 µM (inactive)
same,GI50,HCC 2998,> 100 µM (inactive)
same,GI50,HCT-116,> 100 µM (inactive)
same,GI50,HCT-15,> 100 µM
same,GI50,HL-60,> 100 µM (inactive)
same,GI50,HOP-62,> 100 µM (inactive)
same,GI50,HOP-92,> 100 µM (inactive)
same,GI50,HT-29,> 100 µM (inactive)
same,GI50,Hs-578T,> 100 µM (inactive)
same,GI50,IGROV-1,> 100 µM (inactive)
same,GI50,K562,> 100 µM (inactive)
same,GI50,KM12,> 100 µM (inactive)
same,GI50,LOX IMVI,> 100 µM (inactive)
same,GI50,M14,> 100 µM (inactive)
same,GI50,MCF7,> 100 µM (inactive)
same,GI50,MDA-MB-231,> 100 µM (inactive)
same,GI50,MDA-MB-435,> 100 µM (inactive)
same,GI50,MDA-N,> 100 µM (inactive)
same,GI50,MOLT-4,15.2 µM (inactive)
same,GI50,Malme-3M,> 100 µM (inactive)
same,GI50,NCI-H226,> 100 µM (inactive)
same,GI50,NCI-H23,> 100 µM (inactive)
same,GI50,NCI-H460,> 100 µM (inactive)
same,GI50,NCI-H522,> 100 µM (inactive)
same,GI50,NCI/ADR-RES,> 100 µM (inactive)
same,GI50,OVCAR-3,> 100 µM (inactive)
same,GI50,OVCAR-4,> 100 µM (inactive)
same,GI50,OVCAR-5,> 100 µM (inactive)
same,GI50,OVCAR-8,> 100 µM (inactive)
same,GI50,PC-3,> 100 µM (inactive)
same,GI50,RPMI-8226,25.2 µM (inactive)
same,GI50,RXF 393,> 100 µM (inactive)
same,GI50,SF-268,> 100 µM (inactive)
same,GI50,SF-295,> 100 µM (inactive)
same,GI50,SF-539,> 100 µM (inactive)
same,GI50,SK-MEL-28,> 100 µM (inactive)
same,GI50,SK-MEL-2,> 100 µM (inactive)
same,GI50,SK-MEL-5,> 100 µM (inactive)
same,GI50,SK-OV-3,> 100 µM (inactive)
same,GI50,SN12C,> 100 µM (inactive)
same,GI50,SNB-19,> 100 µM (inactive)
same,GI50,SNB-75,> 100 µM (inactive)
same,GI50,SR,> 100 µM (inactive)
same,GI50,SW-620,77.3 µM (inactive)
same,GI50,TK-10,> 100 µM (inactive)
same,GI50,U-251,> 100 µM (inactive)
same,GI50,UACC-257,> 100 µM (inactive)
same,GI50,UACC-62,> 100 µM (inactive)
same,GI50,UO-31,> 100 µM (inactive)
CCN(CC)CCNc1n[n+]([O-])c2ccccc2[n+]1[O-],GI50,786-0,7.85 µM (inactive)
same,GI50,ACHN,2.95 µM (inactive)
same,GI50,BT-549,16.4 µM (inactive)
same,GI50,CCRF-CEM,3.91 µM (inactive)
same,GI50,COLO 205,5.96 µM (inactive)
same,GI50,DU-145,12.1 µM (inactive)
same,GI50,EKVX,12.7 µM (inactive)
same,GI50,HCC 2998,2.07 µM (inactive)
same,GI50,HCT-116,7.73 µM (inactive)
same,GI50,HCT-15,3.92 µM
same,GI50,HL-60,1.85 µM (inactive)
same,GI50,HOP-62,5.11 µM (inactive)
same,GI50,HT-29,5.94 µM (inactive)
same,GI50,Hs-578T,28.6 µM (inactive)
same,GI50,IGROV-1,1.81 µM (inactive)
same,GI50,K562,1.72 µM (inactive)
same,GI50,KM12,9.2 µM (inactive)
same,GI50,LOX IMVI,9.86 µM (inactive)
same,GI50,M14,6.7 µM (inactive)
same,GI50,MDA-MB-435,12.5 µM (inactive)
same,GI50,MDA-N,9.73 µM (inactive)
same,GI50,MOLT-4,2.02 µM (inactive)
same,GI50,Malme-3M,6.76 µM (inactive)
same,GI50,NCI-H226,7.21 µM (inactive)
same,GI50,NCI/ADR-RES,22.9 µM (inactive)
same,GI50,OVCAR-3,7.21 µM (inactive)
same,GI50,OVCAR-5,13.2 µM (inactive)
same,GI50,OVCAR-8,7.76 µM (inactive)
same,GI50,PC-3,5.78 µM (inactive)
same,GI50,RPMI-8226,4.48 µM (inactive)
same,GI50,RXF 393,4.65 µM (inactive)
same,GI50,SF-268,10.7 µM (inactive)
same,GI50,SF-295,7.93 µM (inactive)
same,GI50,SF-539,9.27 µM (inactive)
same,GI50,SK-MEL-28,39.4 µM (inactive)
same,GI50,SK-MEL-5,1.59 µM (inactive)
same,GI50,SK-OV-3,4 µM (inactive)
same,GI50,SN12C,3.91 µM (inactive)
same,GI50,SNB-19,13.5 µM (inactive)
same,GI50,SW-620,12 µM (inactive)
same,GI50,T47D,5.18 µM (inactive)
same,GI50,TK-10,11.3 µM (inactive)
same,GI50,U-251,12.8 µM (inactive)
same,GI50,UACC-62,4.8 µM (inactive)
same,GI50,UO-31,19 µM (inactive)
